Measurements as given in patent US5500424A, “Pyrimidine and pyridine derivatives, their production and use” (Nihon Nohyaku Co., Ltd., priority 1993, dated 1996).

Legend:
[1] = target: T1, acyl-CoA:cholesterol acyltransferase (ACAT) (Oryctolagus cuniculus, UniProt G1SFD9); assay: Inhibitory activity on acyl-CoA:cholesterol acyltransferase (ACAT); format: biochemical, white rabbit; settings: rabbit intestinal mucosa microsomes, read-out: Inhibition rate
T1 construct: The intestinal mucosa of a white rabbit was homogenized and microsomal fraction was obtained; from tissue; host or cells: white rabbit intestinal mucosa, microsomal fraction
T1 sequence (G1SFD9 1-524): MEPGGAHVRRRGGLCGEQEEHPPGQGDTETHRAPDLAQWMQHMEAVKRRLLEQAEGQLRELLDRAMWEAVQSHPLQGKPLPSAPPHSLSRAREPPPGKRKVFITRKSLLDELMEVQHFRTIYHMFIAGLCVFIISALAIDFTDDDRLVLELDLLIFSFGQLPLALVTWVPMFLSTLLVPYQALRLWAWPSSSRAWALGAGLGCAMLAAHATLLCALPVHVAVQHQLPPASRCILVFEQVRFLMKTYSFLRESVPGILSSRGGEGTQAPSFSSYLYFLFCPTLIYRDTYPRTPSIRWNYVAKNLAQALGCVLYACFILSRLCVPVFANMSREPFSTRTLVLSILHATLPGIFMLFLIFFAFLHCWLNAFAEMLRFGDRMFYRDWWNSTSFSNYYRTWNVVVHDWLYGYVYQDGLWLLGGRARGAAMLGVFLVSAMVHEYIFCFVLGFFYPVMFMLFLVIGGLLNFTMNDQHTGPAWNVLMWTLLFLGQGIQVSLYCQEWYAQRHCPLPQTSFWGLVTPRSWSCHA
Protocol: Inhibitory activity on acyl-CoA:cholesterol acyltransferase (ACAT)
The enzyme used in the test was prepared according to the method of Heider et al. [J. Lipid, Res. 24, 1127 (1983)]. The intestinal mucosa of a white rabbit was homogenized and microsomal fraction was obtained by stepwise centrifugation. The microsomal fraction was suspended in 0.154M phosphate buffer (pH 7.4) and stored at -80° C. until use.
ACAT activity was determined by a modification of the method of Helgerud et al. [J. Lipid Res. 22, 271 (1981)] by measuring radioactivity incorporated into cholesterol esters from [1-^14 C]oleyl-CoA, as an indication. As to the ACAT-inhibitory activity of each compound to be tested, the inhibition rate was calculated by the following equation. [formula]

[2] = tested on: hamsters fed on a high-cholesterol diet; assay: Serum cholesterol lowering activity in hamsters fed on a high-cholesterol diet; format: in vivo, Male Syrian hamsters; settings: Mesocricetus auratus, 30 mg/kg per day for 4 days, 24 hours after last administration, read-out: Reduction rate of total serum cholesterol concentration
Protocol: Serum cholesterol lowering activity in hamsters fed on a high-cholesterol diet
Male Syrian hamsters of 10-week-old were divided into three groups. The first group (normal group) was fed an ordinary diet for 4 days. The second group (control group) was fed a high cholesterol diet (containing 0.5% cholesterol and 8.0% coconut oil) for 4 days. The third group (treated group) was fed a high cholesterol diet and was treated with a compound for 4 days. Simultaneously with the beginning of the above feeding, the compound was suspended in a 0.5% carboxymethyl cellulose solution and administered to the treated group, in a dose of 30 mg (in terms of the compound) per kg of body weight per day for 4 days. A 0.5% carboxymethyl cellulose solution was also administered to the normal group and the control group in the same manner as above.
After 24 hours of the last administration, blood was collected and the cholesterol concentration in serum was measured by an enzymatic method. The reduction rate of the total serum cholesterol concentration was calculated from values obtained for the three groups by the following equation. [formula] wherein A: the serum cholesterol concentration of the control group.
B: the serum cholesterol concentration of the treated group.
C: the serum cholesterol concentration of the normal group.

[3] = tested on: cholesterol esterification in macrophages (J774 A.I cells); assay: Inhibitory effect on cholesterol esterification in macrophages; format: cell-based; settings: Mus musculus, AcLDL-loaded J774 A.I cells, read-out: Inhibition rate
Protocol: Inhibitory effect on cholesterol esterification in macrophages
The test was carried out by a modification of the method of Goldstein et al. [Pro. Nat. Acad. Sci. U.S.A. 71, 4288 (1974)]. J774 A.I cells, the mouse macrophage-like cell line, were suspended in Dulbecco's modified Eagle's medium (DMEM) containing 10% fetal calf serum (FCS), in a proportion of 3×10^5 cells per 2 ml and were seeded into 6-well plates. The cells were cultured under a humidified atmosphere of 95% air/5% CO2 at 37° C. for 24 hours. The medium was replaced by 1 ml of DMEM containing 10% of FCS and 50 μg/ml of acetylated human low density lipoprotein (AcLDL), followed by culturing for 16 hours. Five microliters of each compound dissolved in dimethyl sulfoxide was added to the medium, and the cells were cultured for another 2 hours. Then, [^14 C]oleate (2×10^6 dpm/well) bovine serum albumin complex was added in the medium. After 2 hours of culture, cells were collected and the cholesterol-esterifying activity was determined by measuring radioactivity incorporated into cholesterol esters in the cells. The recovery of the cholesterol esters was determined by the addition of [^3 H]cholesteryl oleate, and the esterifying activity was corrected using the recovery. As to the inhibitory activity on cholesterol esterification of the compound to be tested, the inhibition rate was calculated by the following equation. [formula] wherein A: the cholesterol-esterifying activity of AcLDL-loaded cells to which the compound to be tested was added.
B: the cholesterol-esterifying activity of AcLDL-loaded cells to which dimethyl sulfoxide was added.

inhibition at 0.01 µM [1] [%]	inhibition at 1 µM ([1]; 1 μM) [%]	SMILES	inhibition in vivo at 30 mg/kg [2] [%]	inhibition at 0.3 µM [3] [%]	inhibition at 1 µM [3] [%]
72.3		CCc1cccc(CC)c1NC(=O)Nc1cnc(-c2ccccc2)nc1-c1ccccc1C(F)(F)F [Compound 37, N-(2,6-Diethylphenyl)-N'-[2-phenyl-4-(2-trifluoromethylphenyl)pyrimidin-5-yl]urea]	63.3	67.1	87.2
75.7		CCc1cccc(CC)c1NC(=O)Nc1cnc(N2CCCCC2)nc1-c1ccccc1Cl [Compound 55, N-[4-(2-Chlorophenyl)-2-(N-piperidino)pyrimidin-5-yl]-N'-(2,6-diethylphenyl)urea]	77.5	34.9	

Second part, the compound before the results:

SMILES	inhibition at 0.01 µM [1] [%]	inhibition at 1 µM ([1]; 1 μM) [%]	inhibition in vivo at 30 mg/kg [2] [%]	inhibition at 0.3 µM [3] [%]	inhibition at 1 µM [3] [%]
CC(C)c1cccc(C(C)C)c1NC(=O)Nc1cnc(-c2ccccc2)nc1-c1ccccc1Cl [Compound 15, N-[4-(2-Chlorophenyl)-2-phenylpyrimidin-5-yl]-N'-(2,6-diisopropylphenyl)urea]	67.6	99.5	57.6	29.5	73.3
CC(C)c1cccc(C(C)C)c1NC(=O)Nc1cnc(-c2ccccc2)nc1-c1ccccc1 [Compound 32, N-(2,6-Diisopropylphenyl)-N'-(2,4-diphenylpyrimidin-5-yl)urea]	73.5		63.7	58	74.3
Cc1ccccc1-c1nc(-c2ccccc2)ncc1NC(=O)Nc1c(C(C)C)cccc1C(C)C [Compound 36, N-(2,6-Diisopropylphenyl)-N'-[4-(2-methylphenyl)-2-phenylpyrimidin-5-yl]urea]	72.9		63.4	51.6	
